According to patent US12459951B2, “Compounds that interact with RAS superfamily proteins for treatment of cancers, inflammatory diseases, rasopathies, and fibrotic disease” (SHY Therapeutics, LLC, priority 2022, dated 2025):

Tests used:
[1] = system: KRas wild type; assay: Ras GTP Binding Domain Inhibition Assay (Ras Superfamily Assay); conditions: for KRas wild type + SOS: % inh.: with SOS; for KRas wild type: % inh.: without SOS
How it was run: (§1)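 Binding of 100 nM fluorescent GTP (Cy3 or Cy5, 45 min, room temperature) was read after washes from plate-captured His-tagged protein. Beforehand, compounds at 20 μM or in dilution series for IC50 sat 3 h on the protein in Tris buffer pH 7.4 or 7.0 with 1% DMSO, Sos GEF optionally added for the last hour.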

[2] = biological target: T1, Rac-1 (Homo sapiens, UniProt P63000); assay: as above; conditions: read-out: Rac-1: % inh.
T1 construct: made in house
How it was run: as §1

[3] = system: KRas G12D mutant; assay: as above; conditions: for KRas G12D mutant + SOS: % inh.: with SOS; for KRas G12D mutant: % inh.: without SOS
How it was run: as §1

[4] = system: TNF-alpha; assay: TNF-alpha Quantification Assay (ELISA), LPS-stimulated RAW 264.7; format: cell-based; conditions: Mus musculus, RAW264.7; at 10 μM; read-out: TNFα: % inh.
[5] = system: MAPK p38 phosphorylation; assay: MAPK p38 Activation Assay (western blot), Panc-1; format: cell-based, human; conditions: at 10 μM, Panc-1 pancreatic cancer cell line; starred symbols = activation
Protocol: Protocol for MAPK p38 Activation Assay
This assay is referred to as the “MAPK p38 Activation Assay” throughout this application.
Cell lines: Human tumor-derived pancreatic cancer cell line Panc-1 (expressing KRas G12D mutant) was purchased from American Type Culture Collection and grown in complete DMEM-High Glucose medium, supplemented with penicillin (100 U/mL), streptomycin (100 μg/mL), and 10% heat-inactivated FBS at 37° C. in a humidified incubator with 5% CO2.
Method 1: Cells were plated at 350000 cells/well density in a 12-well plate, allowed 3 hours to adhere to the plate, then starved in the appropriate medium in the presence of 0.5% FBS overnight. The small molecules to be tested were added to the cells in the final concentration of 10 μM in the presence of 0.3% DMSO for 6 hours incubation at 37° C. For IC50 value determination, serial dilutions of compounds were added to cells under the same conditions. Next, cells were stimulated with 1.5 ng/ml EGF for 15 minutes then cells were lysed with lysis buffer containing 1% Triton X-100, EDTA, and Halt™ Protease & Phosphatase Inhibitor Cocktail (Thermo Scientific). Protein concentration was assessed by BCA protein assay (Thermo Scientific). Phosphorylation level of MAPK p38 was determined by western blot.
Method 2: Cells were plated at 350000 cells/well density in a 12-well plate in 10% FBS. The next day small molecules to be tested were added to the cells in the final concentration of 10 μM in the presence of 0.3% DMSO for 6 hours incubation at 37° C. For IC50 value determination, serial dilutions of compounds were added to cells under the same conditions. Next, cells were lysed with lysis buffer containing 1% Triton X-100, EDTA, and Halt™ Protease & Phosphatase Inhibitor Cocktail (Thermo Scientific). Protein concentration was assessed by BCA protein assay (Thermo Scientific). Phosphorylation level of MAPK p38 was determined by western blot.
Western blot protocol: Equal amounts of protein (15-50 μg) were separated by SDS-PAGE and transferred to nitrocellulose membranes (Invitrogen by Thermo Fisher Scientific). The membrane was stained with Ponceau S Stain (Boston BioProducts) to verify uniform protein loading. Membranes were blocked with 10% milk and phosphorylation levels of MAPK p38 were assessed by incubating overnight at 4° C. with the following antibody: Phospho-p38 MAPK (Thr180/Tyr182), from Cell Signaling Technology. Then the membranes were incubated with HRP-conjugated secondary antibody (Jackson Immunoresearch, West Grove, PA). Bands were incubated in Amersham ECL Prime Western Blotting Detection Reagent (GE Healthcare) and visualized using the ChemiDoc MP imaging system (Bio-Rad).

Compound | KRas wild type + SOS: % inh. ([1]; at 20 μM) | KRas wild type: % inh. ([1]; at 20 μM) | inhibition at 20 µM [2] | KRas G12D mutant + SOS: % inh. ([3]; at 20 μM) | KRas G12D mutant: % inh. ([3]; at 20 μM) | inhibition at 10 µM [4] | % inh of MAPK p38 in Panc-1 [5] | KRas wild type + SOS: % inh. ([1]; 20 μM compound) | KRas wild type: % inh. ([1]; 20 μM compound) | KRas G12D mutant + SOS: % inh. ([3]; 20 μM compound) | KRas G12D mutant: % inh. ([3]; 20 μM compound)
CO[C@H]1CC[C@H](Nc2nc(-c3nccn3C)nn3cc(-c4cccnc4)c(-c4ccccc4)c23)C1 (racemic) [Compound 194, rac N-((1S,3S)-3-Methoxycyclopentyl)-2-(1-methyl-1H-imidazol-2-yl)-5-phenyl-6-(pyridin-3-yl)pyrrolo[2,1-f][1,2,4]triazin-4-amine] | 0 (0 = 0% inhibition) | A (A = 1-25% inhibition) | 1 to 25% | A (A = 1-25% inhibition) | A (A = 1-25% inhibition) | 50 to 74% | E (E = 1-30% inhibition) |  |  |  | 
CO[C@H]1CC[C@@H](Nc2nc(-c3nccn3C)nn3cc(-c4ccncc4)c(-c4ccccc4)c23)C1 (racemic) [Compound 200, rac N-((1R,3S)-3-Methoxycyclopentyl)-2-(1-methyl-1H-imidazol-2-yl)-5-phenyl-6-(pyridin-4-yl)pyrrolo[2,1-f][1,2,4]triazin-4-amine] | B (B = 26-49% inhibition) | B (B = 26-49% inhibition) | 26 to 49% | B (B = 26-49% inhibition) | B (B = 26-49% inhibition) | 1 to 24% | E (E = 1-30% inhibition) |  |  |  | 
CO[C@H]1C[C@H](Nc2nc(-c3nccn3C)nn3cc(-c4ccc(CCN)cc4)c(-c4ccccc4)c23)C1.Cl [Compound 207, 6-(4-(2-Aminoethyl)phenyl)-N-((1r,3r)-3-methoxycyclobutyl)-2-(1-methyl-1H-imidazol-2-yl)-5-phenylpyrrolo[2,1-f][1,2,4]triazin-4-amine hydrochloride salt] | B (B = 26-49% inhibition) | B (B = 26-49% inhibition) | 1 to 25% | A (A = 1-25% inhibition) | B (B = 26-49% inhibition) | 75 to 100% | H (H = 100% inhibition) |  |  |  | 
CO[C@H]1C[C@H](Nc2nc(-c3nccn3C)nn3cc(-c4cccc(CN)c4)c(-c4ccccc4)c23)C1 [Compound 204, 6-(3-(aminomethyl)phenyl)-N-((1r,3r)-3-methoxycyclobutyl)-2-(1-methyl-1H-imidazol-2-yl)-5-phenylpyrrolo[2,1-f][1,2,4]triazin-4-amine] | A (A = 1-25% inhibition) | A (A = 1-25% inhibition) | 1 to 25% | A (A = 1-25% inhibition) | A (A = 1-25% inhibition) | 25 to 49% | E (E = 1-30% inhibition) |  |  |  | 
COCCNc1nc(-c2nccn2C)nn2cc(-c3cccc(OC)c3Cl)c(C)c12 [Compound 16, 6-(2-Chloro-3-methoxyphenyl)-N-(2-methoxyethyl)-5-methyl-2-(1-methyl-1H-imidazol-2-yl)pyrrolo[2,1-f][1,2,4]triazin-4-amine] |  |  | 0% |  |  | 0% | H* (H* ≥ 100% activation) | A (A = 1-25% inhibition) | 0 (0 = 0% inhibition) | 0 (0 = 0% inhibition) | A (A = 1-25% inhibition)
CO[C@H]1C[C@H](Nc2nc(-c3nccn3C)nn3cc(-c4cccc(OCCN)c4)c(-c4ccccc4)c23)C1 [Compound 205, 6-(3-(2-Aminoethoxy)phenyl)-N-((1r,3r)-3-methoxycyclobutyl)-2-(1-methyl-1H-imidazol-2-yl)-5-phenylpyrrolo[2,1-f][1,2,4]triazin-4-amine] | A (A = 1-25% inhibition) | A (A = 1-25% inhibition) | 1 to 25% | A (A = 1-25% inhibition) | A (A = 1-25% inhibition) |  | G (G = 75-99% inhibition) |  |  |  | 
CO[C@H]1C[C@H](Nc2nc(-c3nccn3C)nn3cc(-c4ccncc4)c(-c4ccccc4)c23)C1 [Compound 199, N-((1r,3r)-3-Methoxycyclobutyl)-2-(1-methyl-1H-imidazol-2-yl)-5-phenyl-6-(pyridin-4-yl)pyrrolo[2,1-f][1,2,4]triazin-4-amine] | B (B = 26-49% inhibition) | A (A = 1-25% inhibition) | 26 to 49% | B (B = 26-49% inhibition) | B (B = 26-49% inhibition) | 1 to 24% | E (E = 1-30% inhibition) |  |  |  | 
COc1ccnc(Nc2nc(-c3nccn3C)nn3cc(-c4ccn(CCN)n4)c(C)c23)c1 [Compound 187, 6-(1-(2-Aminoethyl)-1H-pyrazol-3-yl)-N-(4-methoxypyridin-2-yl)-5-methyl-2-(1-methyl-1H-imidazol-2-yl)pyrrolo[2,1-f][1,2,4]triazin-4-amine] | D (D = 76-100% inhibition) | D (D = 76-100% inhibition) | 76 to 100% | D (D = 76-100% inhibition) | D (D = 76-100% inhibition) | 1 to 24% | E* (E* = 1-30% activation) |  |  |  | 
CO[C@H]1C[C@H](Nc2nc(-c3nccn3C)nn3cc(-c4ccc(OCCN)cc4)c(-c4ccccc4)c23)C1.Cl [Compound 208, 6-(4-(2-Aminoethoxy)phenyl)-N-((1r,3r)-3-methoxycyclobutyl)-2-(1-methyl-1H-imidazol-2-yl)-5-phenylpyrrolo[2,1-f][1,2,4]triazin-4-amine hydrochloride salt] | C (C = 50-75% inhibition) | B (B = 26-49% inhibition) | 26 to 49% | C (C = 50-75% inhibition) | B (B = 26-49% inhibition) | 25 to 49% | G (G = 75-99% inhibition) |  |  |  | 
COc1ccnc(Oc2nc(-c3nccn3C)nn3cc(-c4ccn(C)n4)c(C)c23)c1 [Compound 220, 4-((4-Methoxypyridin-2-yl)oxy)-5-methyl-2-(1-methyl-1H-imidazol-2-yl)-6-(1-methyl-1H-pyrazol-3-yl)pyrrolo[2,1-f][1,2,4]triazine] | A (A = 1-25% inhibition) | B (B = 26-49% inhibition) | 26 to 49% | A (A = 1-25% inhibition) | B (B = 26-49% inhibition) | 1 to 24% | F (F = 31-74% inhibition) |  |  |  | 
COc1cccc(Nc2nc(-c3ccccn3)nn3cc(-c4ccn(C(C)C)n4)c(C)c23)n1 [Compound 14, 6-(1-Isopropyl-1H-pyrazol-3-yl)-N-(6-methoxypyridin-2-yl)-5-methyl-2-(pyridin-2-yl)pyrrolo[2,1-f][1,2,4]triazin-4-amine] |  |  | 0% |  |  | 0% | H* (H* ≥ 100% activation) | A (A = 1-25% inhibition) | 0 (0 = 0% inhibition) | 0 (0 = 0% inhibition) | A (A = 1-25% inhibition)
